Key:
RARα [1] = target: T1, RARα (Homo sapiens, UniProt P10276); assay: Fluorescence competition binding assay (displacement of DC271); settings: for Kd: 100 nM RAR and DC271 on plate, read-out: Binding KD (± SD) RARα; for ΔGEXP RARα: experimental binding free energy from K D, ΔGexp=−RT ln K, 298.1 K
T1 construct: His6-3C-NusA (cleaved yes); made in house; host or cells: E. coli BL21(DE3), pET50b vector
T1 sequence (P10276 183-417 limits assumed): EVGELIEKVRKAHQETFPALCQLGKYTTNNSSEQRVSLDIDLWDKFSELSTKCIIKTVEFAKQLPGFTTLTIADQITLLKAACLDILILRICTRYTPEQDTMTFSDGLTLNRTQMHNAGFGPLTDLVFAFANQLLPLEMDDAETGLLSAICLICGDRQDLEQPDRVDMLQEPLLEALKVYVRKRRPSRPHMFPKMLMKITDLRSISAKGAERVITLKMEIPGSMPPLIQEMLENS
Experimental: (§1) Fluorescence competition assays were employed to determine the relative binding affinities of each synthetic retinoid toward the LBD of the RARs. The assay is based on the potential for competitive displacement of the inherently fluorescent retinoid DC271 from the LBP by a test nonfluorescent synthetic retinoid. Changes in the fluorescence were measured following the addition of a serial dilution of the test compound and the results were plotted to generate a binding curve. […] Assays were performed for both RARα and RARγ. […] Nonlinear least-squares regression analyses were performed to calculate binding affinities and reported as binding K D, the equilibrium dissociation constant between the RAR isoform and the test synthetic retinoid.
(§2) RARα/γ proteins were expressed in BL21(DE3) cells (NEB) transformed into pET50b (Novagen) and pOPINS3C vectors, respectively, carrying the gene construct and containing a His6-3C-NusA tag or His6-3C-SUMO tag used for solubility. Transformations were carried out under standard conditions using Quick Transformation Protocol (New England Biolabs). Successful transformants were grown overnight in 2xYT media (Melford) and frozen for storage at −80 °C in 50% glycerol. Expression cultures were inoculated from glycerol stocks into 25 mL of 2xYT media (Melford) with 50 μg/mL kanamycin or 100 μg/mL ampicillin (Sigma-Aldrich) and grown overnight with shaking (37 °C, 150 rpm). The overnight cultures were transferred into 1 L expression flasks (2xYT/ampicillin 100 μg/mL or 2xYT/kanamycin 50 μg/mL) and grown with shaking at 37 °C, 150 rpm. Induction was carried out at an OD600 of 0.6–0.8, with 1 mL of 1 M IPTG (1 mM in culture), before shaking overnight (20 h) at 18 °C. The resulting cultures were spun down into pellets using an Avanti Hi-Speed centrifuge (JLA 8.1000, 4000 rpm, 30 min, 4 °C), before the supernatant was removed and the bacterial pellet were frozen at −80 °C.
(§3) RARα/γ (pET50b or pOPINS3C, BL21(DE3) (NEB)) were resuspended from pellet with 20 mL Wash Buffer (20 mM Tris-HCl, 300 mM NaCl and 20 mM imidazole, pH 8) and the resulting suspension was sonicated on ice (40% power, 2 min, repeated twice with 1 min rest in-between) before centrifuging (Avanti Hi-Speed JA25.50, 20,000 rpm, 1 h, 4 °C). Supernatants were clarified using 0.45 μm syringe filters (Thermo Fisher Scientific). Affinity chromatography and size-exclusion (SEC) chromatography were carried out on AKTA Pure25 (Cytiva). Supernatants were loaded onto the HisTrap HP column (5 mL, Cytiva) and washed using 25 mL of wash Buffer. The column was washed with Wash Buffer until UV trace returned to baseline, before RARα/γ was eluted using a gradient of Elution Buffer (20 mM Tris-HCl, 300 mM NaCl, 500 mM imidazole pH 8). The resulting protein-containing fractions were analyzed by SDS-PAGE (200 V, 30 min) using SurePAGE Bis-Tris 12% precast gels (Genscript). Protein concentrations were estimated using absorbance at 280 nm on a DS-11 spectrophotometer (Denovix) with calculated molecular weights and extinction coefficients (Expasy). RAR proteins were cleaved overnight from 3C-NusA tag or 3C-SUMO-His tag using 1 Unit/100 μg protein of HRV3C protease (Thermo Fisher Scientific) at 4 °C. Solution after digestion was loaded onto a HiLoad 16/600 Superdex 75 prep-grade column (Cytiva) and cleaved RARα/γ was separated from the tag based on molecular weight and eluted from the column using SEC Buffer (20 mM Tris-HCl, 300 mM NaCl and 0.5 mM TCEP, pH 8) into 2 mL fractions. The resulting protein fractions were analyzed by SDS PAGE (200 V, 30 min) using SurePAGE Bis-Tris 12% precast gels (Genscript), before being concentrated to 5 mg/mL using centrifugal concentrators (Sartorius) and frozen at −80 °C in small aliquots for use in binding assays.

RARα [2] = assay: as above; set-up: species or system human; settings: log-log plot of K D for RARα and RARγ
Experimental: as §1, §2, §3

[3] = system: ERK1/2 phosphorylation in SH-SY5Y cells; assay: ERK1/2 phosphorylation (nongenomic response), AlphaScreen SureFire; format: cell-based, human; set-up: nongenomic response Emax (±95% CI): unit not given here; settings: for EC50: Homo sapiens, read-out: nongenomic response EC50 (±95% CI); for nongenomic E max compared with ATRA: nonoverlapping 95% CI
Experimental: After screening the retinoids for genomic responses, they were tested for their nongenomic ability to rapidly phosphorylate ERK1/2 in the SH-SY5Y cell line. ATRA is known as a potent activator of ERK1/2 − and was used as the standard for comparison. […] The efficacies of the remaining seven retinoids were similar to ATRA.
SH-SY5Y cell line as used in ERK phosphorylation and neurite outgrowth assays described below. The cells were grown in DMEM containing 10% FCS at 37 °C with 5% CO2. The medium was changed three times a week and the cells were passaged at 70% confluence using 0.05% trypsin-EDTA.
To quantify ERK1/2 phosphorylation, SH-SY5Y cells (100,000 cells/well) were plated onto 96-well plates and serum-starved for 24 h in DMEM. Cells were assayed in serum-free DMEM and stimulated for 60 min at 37 °C in a humidified atmosphere. Retinoids were tested at concentrations ranging from 10 to 4 to 10–11 M and at a final concentration of 0.1% DMSO. At the end of the assay, the medium was removed, and cells were lysed with lysis buffer supplied in the AlphaScreen SureFire ERK1/2 kit (PerkinElmer). The assay was performed in 384-well white Proxiplates according to the manufacturer’s instructions and using the beads supplied in the protein A general IgG detection kit (PerkinElmer). Briefly, 4 μL samples were incubated with 7 μL of the freshly prepared mixture containing donor and acceptor beads. Plates were incubated at room temperature and read with the Envision system (PerkinElmer Life Sciences) using AlphaScreen settings.
All data are presented as mean ± SEM of three independent experiments with biological triplicates. Statistical analyses were performed in Microsoft Office Excel 2019 or GraphPad Prism 7.0c version (Prism, GraphPad Software, San Diego, CA). Neurite outgrowth data were analyzed by one-way ANOVA with Newman-Keuls multiple comparison test as appropriate; P value <0.05 was considered statistically significant. *P < 0.05, **P < 0.01. Data for X-Gal and ERK1/2 phosphorylation were analyzed using sigmoidal dose–response analysis of log (agonist) versus response curve (stimulation).

Chain of RARα (P10276 182-417): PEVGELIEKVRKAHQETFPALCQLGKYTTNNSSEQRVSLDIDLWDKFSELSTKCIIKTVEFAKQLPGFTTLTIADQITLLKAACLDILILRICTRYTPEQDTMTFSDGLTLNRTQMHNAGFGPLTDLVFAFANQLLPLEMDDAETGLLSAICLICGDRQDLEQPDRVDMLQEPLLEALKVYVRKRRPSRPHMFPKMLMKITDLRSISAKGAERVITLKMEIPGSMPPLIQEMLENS

| SMILES | Kd (RARα [1]) | ΔGEXP RARα (RARα [1]) | EC50 ([3]; SH-SY5Y cells, 1 h) | nongenomic response EC50 (±95% CI) ([3]; SH-SY5Y cells, 1 h) | binding preference RARα versus RARγ (from K D) (RARα [2]) | nongenomic response Emax (±95% CI) ([3]; SH-SY5Y cells, 1 h) | induction of ERK1/2 phosphorylation (nongenomic activity) ([3]; SH-SY5Y cells, 1 h) | nongenomic E max compared with ATRA [3] |
| --- | --- | --- | --- | --- | --- | --- | --- | --- |
| COc1cc2c(cc1C#Cc1cc(F)c(C(=O)O)c(F)c1)C(C)(C)CCC2(C)C [Compound 22, 2,6-Difluoro-4-[2-(3-methoxy-5,5,8,8-tetramethyl-5,6,7,8-tetrahydronaphthalen-2-yl)ethynyl]benzoic Acid] | 105 nM | -9.55 kcal/mol | 3.37 nM |  | bind RARα preferentially over RARγ | 71.2 (±3.9) |  |  |
| CC1(C)CCC(C)(C)c2cc(C#Cc3ccc(C(=O)O)cn3)ccc21 [Compound 23, 6-[2-(5,5,8,8-Tetramethyl-5,6,7,8-tetrahydronaphthalen-2-yl)ethynyl]pyridine-3-carboxylic Acid] | 15.8 nM | -10.7 kcal/mol | 23.9 nM |  | close to the plotted line representing equal binding affinity for RARα and RARγ | 85.7 (±9.23) | showed activity toward the nongenomic pathway |  |
| CC1(C)CCC(C)(C)c2cc(C#Cc3ccc(C(=O)O)nc3)ccc21 [Compound 24, 5-[2-(5,5,8,8-Tetramethyl-5,6,7,8-tetrahydronaphthalen-2-yl)ethynyl]pyridine-2-carboxylic Acid] | 87.1 nM | -9.64 kcal/mol | 13.6 nM |  | bind RARα preferentially over RARγ | 59.7 (±3.34) | showed activity toward the nongenomic pathway |  |
| Cc1cc2c(cc1C#Cc1ccc(C(=O)O)cn1)C(C)(C)CCC2(C)C [Compound 26, 6-[2-(3,5,5,8,8-Pentamethyl-5,6,7,8-tetrahydronaphthalen-2-yl)ethynyl]pyridine-3-carboxylic Acid] | 48.3 nM | -10.0 kcal/mol | 459 nM |  | bind RARα preferentially over RARγ | 56.4 (±6.36) |  | E max values significantly higher than ATRA |
| COc1cc2c(cc1C#Cc1ccc(C(=O)O)cn1)C(C)(C)CCC2(C)C [Compound 27, 6-[2-(3-Methoxy-5,5,8,8-tetramethyl-5,6,7,8-tetrahydronaphthalen-2-yl)ethynyl]pyridine-3-carboxylic Acid] | 1820 nM | -7.84 kcal/mol |  | no response | close to the plotted line representing equal binding affinity for RARα and RARγ | no response | lacked nongenomic activity |  |

The next lines start with results.

| Kd (RARα [1]) | ΔGEXP RARα (RARα [1]) | EC50 ([3]; SH-SY5Y cells, 1 h) | nongenomic response EC50 (±95% CI) ([3]; SH-SY5Y cells, 1 h) | SMILES | binding preference RARα versus RARγ (from K D) (RARα [2]) | nongenomic response Emax (±95% CI) ([3]; SH-SY5Y cells, 1 h) | induction of ERK1/2 phosphorylation (nongenomic activity) ([3]; SH-SY5Y cells, 1 h) | nongenomic E max compared with ATRA [3] |
| --- | --- | --- | --- | --- | --- | --- | --- | --- |
| 420 nM | -8.72 kcal/mol | 5.42 nM |  | Cc1cc2c(cc1C#Cc1ncc(C(=O)O)cn1)C(C)(C)CCC2(C)C [Compound 28, 2-[2-(3,5,5,8,8-Pentamethyl-5,6,7,8-tetrahydronaphthalen-2-yl)ethynyl]pyrimidine-5-carboxylic Acid] | bind RARα preferentially over RARγ | 44.7 (±3.15) |  |  |
| 155 nM | -9.29 kcal/mol | 8.54 nM |  | CC1(C)CCC(C)(C)c2nc(C#Cc3ccc(C(=O)O)cc3)cnc21 [Compound 30, 4-[2-(5,5,8,8-Tetramethyl-5,6,7,8-tetrahydroquinoxalin-2-yl)ethynyl]benzoic Acid] | close to the plotted line representing equal binding affinity for RARα and RARγ | 91.6 (±3.21) | showed activity toward the nongenomic pathway | E max values significantly higher than ATRA |
| 203 nM | -9.13 kcal/mol | 58.4 nM |  | CC1(C)CCC(C)(C)c2nc(C#Cc3ccc(C(=O)O)cc3F)cnc21 [Compound 31, 3-Fluoro-4-[2-(5,5,8,8-tetramethyl-5,6,7,8-tetrahydroquinoxalin-2-yl)ethynyl]benzoic Acid] | bind RARγ stronger than RARα | 91.6 (±3.84) |  | E max values significantly higher than ATRA |
| 559 nM | -8.58 kcal/mol | 0.0532 nM |  | Cc1sc(-c2ccc(C(=O)O)cc2)nc1-c1cnc2c(n1)C(C)(C)CCC2(C)C [Compound 40, 4-[5-Methyl-4-(5,5,8,8-tetramethyl-5,6,7,8-tetrahydroquinoxalin-2-yl)-1,3-thiazol-2-yl]benzoic Acid] | close to the plotted line representing equal binding affinity for RARα and RARγ | 40.7 (±1.02) |  | E max values significantly lower than ATRA |
| 162 nM | -9.27 kcal/mol | 12.5 nM |  | Cc1sc(-c2ccc(C(=O)O)c(F)c2)nc1-c1cnc2c(n1)C(C)(C)CCC2(C)C [Compound 42, 2-Fluoro-4-[5-methyl-4-(5,5,8,8-tetramethyl-5,6,7,8-tetrahydroquinoxalin-2-yl)-1,3-thiazol-2-yl]benzoic Acid] | close to the plotted line representing equal binding affinity for RARα and RARγ | 54.1 (±4.07) |  |  |

From PMC12163635, “Synthetic Retinoids for the Modulation of Genomic and Nongenomic Processes in Neurodegenerative Diseases” (ACS Omega, 2025)
